Measurements reported in patent US20100029620A1, “SUBSTITUTED TRIAZOLINE, TETRAZOLONE AND IMIDAZOLONE DERIVATIVES FOR USE AS A MEDICINE” (JANSSEN PHARMACEUTICA N.V., priority 2004, published 2010).

What was measured:
[1] = target: T1, human adrenergic-α2A receptor (Homo sapiens, UniProt P08913); experiment: Radioligand binding experiment for α2A-adrenoceptor ([3H]-raulwolscine competition, CHO cell membranes); details: [3H]raulwolscine 1 nM, membranes of CHO cells transfected with human α2A receptor; read-out: pIC50 α2A (converted)
T1 construct: expressed in transfected cells; membrane preparation
T1 sequence (P08913 1-465): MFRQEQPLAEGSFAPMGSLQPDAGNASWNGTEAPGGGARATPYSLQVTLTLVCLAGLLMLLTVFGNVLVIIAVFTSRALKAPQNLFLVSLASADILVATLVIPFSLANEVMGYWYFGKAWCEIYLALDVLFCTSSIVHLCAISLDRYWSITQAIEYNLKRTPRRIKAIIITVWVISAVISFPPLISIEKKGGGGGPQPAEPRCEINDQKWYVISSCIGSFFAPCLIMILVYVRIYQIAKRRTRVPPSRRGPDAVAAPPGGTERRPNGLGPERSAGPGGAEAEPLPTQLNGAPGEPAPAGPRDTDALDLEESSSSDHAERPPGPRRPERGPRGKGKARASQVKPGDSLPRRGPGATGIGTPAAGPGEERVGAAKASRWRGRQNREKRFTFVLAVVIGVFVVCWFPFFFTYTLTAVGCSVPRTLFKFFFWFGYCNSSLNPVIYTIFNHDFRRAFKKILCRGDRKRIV
Method: (§1) The interaction of the compounds of Formula (I) with α2C-adrenoceptor receptors was assessed in in vitro radioligand binding experiments. In general, a low concentration of a radioligand with a high binding affinity for a particular receptor or transporter is incubated with a sample of a tissue preparation enriched in a particular receptor or transporter or with a preparation of cells expressing cloned human receptors in a buffered medium. During the incubation, the radioligand binds to the receptor or transporter. When equilibrium of binding is reached, the receptor bound radioactivity is separated from the non-bound radioactivity, and the receptor- or transporter-bound activity is counted. The interaction of the test compounds with the receptor is assessed in competition binding experiments. Various concentrations of the test compound are added to the incubation mixture containing the receptor- or transporter preparation and the radioligand. The test compound in proportion to its binding affinity and its concentration inhibits binding of the radioligand. The radioligand used for […] receptor binding was [^3H]-raulwolscine.
(§2) CHO cells, stabile transfected with human adrenergic-α2A-, -α2B or α2C receptor cDNA, were cultured in Dulbecco's Modified Eagle's Medium (DMEM)/Nutrient mixture Ham's F12 (ratio 1:1)(Gibco, Gent-Belgium) supplemented with 10% heat inactivated fetal calf serum (Life Technologies, Merelbeke-Belgium) and antibiotics (100 IU/ml penicillin G, 100 μg/ml streptomycin sulphate, 110 μg/ml pyruvic acid and 100 μg/ml L-glutamine). One day before collection, cells were induced with 5 mM sodiumbutyrate. Upon 80-90% of confluence, cells were scraped in phosphate buffered saline without Ca^2+ and Mg^2+ and collected by centrifugation at 1500×g for 10 min. The cells were homogenised in Tris-HCl 50 mM using an Ultraturrax homogenizer and centrifuged for 10 min at 23,500×g. The pellet was washed once by resuspension and rehomogenization and the final pellet was resuspended in Tris-HCl, divided in 1 ml aliquots and stored at −70° C.
(§3) Membranes were thawed and re-homogenized in incubation buffer (glycylglycine 25 mM, pH 8.0). In a total volume of 500 μl, 2-10 μg protein was incubated with [^3H]raulwolscine (NET-722) (New England Nuclear, USA) (1 nM final concentration) with or without competitor for 60 min at 25° C. followed by rapid filtration over GF/B filter using a Filtermate196 harvester (Packard, Meriden, Conn.). Filters were rinsed extensively with ice-cold rinsing buffer (Tris-HCl 50 mM pH 7.4). Filter-bound radioactivity was determined by scintillation counting in a Topcount (Packard, Meriden, CT) and results were expressed as counts per minute (cpm). Non-specific binding was determined in the presence of 1 μM oxymetazoline for hα2A- and hα2B receptors and 1 μM spiroxatrine for hα2C receptors.
(§4) Data from assays in the presence of compound were calculated as a percentage of total binding measured in the absence of test compound. Inhibition curves, plotting percent of total binding versus the log value of the concentration of the test compound, were automatically generated, and sigmoidal inhibition curves were fitted using non-linear regression. The pIC50 values of test compounds were derived from individual curves.

[2] = target: T2, human adrenergic-α2C receptor (Homo sapiens, UniProt P18825); experiment: Radioligand binding experiment for α2C-adrenoceptor ([3H]-raulwolscine competition, CHO cell membranes); details: [3H]raulwolscine 1 nM, membranes of CHO cells transfected with human α2C receptor; read-out: pIC50 α2C (converted)
T2 construct: expressed in transfected cells; membrane preparation
T2 sequence (P18825 1-462): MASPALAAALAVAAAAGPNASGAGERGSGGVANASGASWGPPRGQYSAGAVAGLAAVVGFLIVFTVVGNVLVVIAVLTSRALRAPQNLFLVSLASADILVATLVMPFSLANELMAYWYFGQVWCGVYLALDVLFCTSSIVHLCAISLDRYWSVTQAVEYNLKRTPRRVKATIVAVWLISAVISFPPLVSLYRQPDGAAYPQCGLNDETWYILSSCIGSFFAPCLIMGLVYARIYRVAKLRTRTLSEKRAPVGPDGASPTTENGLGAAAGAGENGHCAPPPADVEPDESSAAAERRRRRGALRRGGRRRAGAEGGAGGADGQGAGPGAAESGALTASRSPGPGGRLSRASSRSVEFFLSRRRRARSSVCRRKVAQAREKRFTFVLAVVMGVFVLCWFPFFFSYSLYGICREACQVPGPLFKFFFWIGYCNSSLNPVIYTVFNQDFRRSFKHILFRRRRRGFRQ
Method: as §1, §2, §3, §4

[3] = target: T3, human adrenergic-α2B receptor (Homo sapiens, UniProt P18089); experiment: Radioligand binding experiment for α2B-adrenoceptor ([3H]-raulwolscine competition, CHO cell membranes); details: [3H]raulwolscine 1 nM, membranes of CHO cells transfected with human α2B receptor; read-out: pIC50 α2B (converted)
T3 construct: expressed in transfected cells; membrane preparation
T3 sequence (P18089 1-450): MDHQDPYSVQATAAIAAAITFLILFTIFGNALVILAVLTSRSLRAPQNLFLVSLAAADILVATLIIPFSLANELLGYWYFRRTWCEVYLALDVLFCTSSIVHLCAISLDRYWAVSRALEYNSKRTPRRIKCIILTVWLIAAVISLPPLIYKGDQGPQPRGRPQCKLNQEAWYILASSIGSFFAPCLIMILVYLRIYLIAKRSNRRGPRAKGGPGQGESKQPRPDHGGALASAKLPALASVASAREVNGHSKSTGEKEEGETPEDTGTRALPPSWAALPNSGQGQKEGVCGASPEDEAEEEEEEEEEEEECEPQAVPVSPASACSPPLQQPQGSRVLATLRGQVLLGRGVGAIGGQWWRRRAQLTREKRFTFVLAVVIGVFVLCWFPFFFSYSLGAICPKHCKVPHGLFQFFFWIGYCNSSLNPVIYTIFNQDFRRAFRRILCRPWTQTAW
Method: as §1, §2, §3, §4

Structure (SMILES) | IC50 [1] [µM] | IC50 [2] [µM] | IC50 [3] [µM]
CCOC(=O)C1CCN(Cc2ccc(-n3cnn(CCNCCOc4ccccc4)c3=O)cc2)CC1 [compound 19] | 0.0631 | 0.00316 | 0.251
C/C(=C\c1ccccc1)CN1CCC(n2ncn(-c3ccc(CN)cc3)c2=O)CC1 [compound 34] | 0.0398 | 0.01 | 0.0501
C/C(=C\c1ccccc1)CN1CCC(n2cnn(-c3ccc(NCCN(C)C)cc3)c2=O)CC1 [compound 31] | 0.0501 | 0.0126 | 0.0251
O=c1n(-c2ccc(NCc3ccc(F)cc3)cc2)cnn1CC1CCN(CCOc2ccccc2)CC1 [compound 48] | 0.2 | 0.00316 | 0.0251
COc1ccc(N2CCN(c3ccc(-n4cnn(Cc5ccc(CN6CCOCC6)cc5)c4=O)cc3)CC2)cc1 [compound 59] | 1.58 | 0.631 | –
O=c1n(-c2ccc(CN3CCOCC3)cc2)cnn1CCNCCOc1ccc(F)cc1 [compound 25] | 2.51 | 0.0501 | –
COc1ccc(N2CCN(c3ccc(-n4cnn(C5CCN(C/C(C)=C/c6ccccc6)CC5)c4=O)cc3)CC2)cc1 [compound 57] | > 10 | 0.0794 | –
COc1ccc(N2CCN(c3ccc(-n4cnn(C5CCN(Cc6ccc7c(c6)OCCO7)CC5)c4=O)cc3)CC2)cc1 [compound 56] | > 10 | 1 | –
COc1ccc(N2CCN(c3ccc(-n4cnn(CCN(C)CCOc5ccccc5)c4=O)cc3)CC2)cc1 [compound 9] | > 10 | 0.794 | –
C/C(=C\c1ccc(F)cc1)CN1CCN(CCn2ncn(Cc3ccc(CN)cc3)c2=O)CC1 [compound 35] | 0.126 | 0.0501 | –
C/C(=C\c1ccccc1)CN1CCC(n2ncn(-c3ccc(CN4CCOCC4)cc3)c2=O)CC1 [compound 69] | 0.158 | 0.0251 | –
COc1ccccc1C1CCN(c2ccc(-n3cnn(CCNCCOc4ccccc4)c3=O)cc2)C1 (stereo not drawn) [compound 15] | 0.794 | 0.1 | –
CC(NCCOc1ccccc1)C(C)n1ncn(-c2ccc(N3CCN(c4ccc(O)cc4)CC3)cc2)c1=O (single isomer, unassigned) [compound 6] | 7.94 | 0.2 | –
C/C(=C\c1ccccc1)CN1CCC(Cn2ncn(-c3ccc(CN4CCOCC4)cc3)c2=O)CC1 [compound 70] | 0.398 | 0.0398 | –
O=c1n(-c2ccc(N3CCOCC3)cc2)cnn1CCNCCOc1ccccc1 [compound 22] | 0.794 | 0.0501 | –
COc1ccc(N2CCN(c3ccc(-n4cnn(C5CCN(CCOc6ccccc6)CC5)c4=O)cc3)CC2)cc1 [compound 58] | 1.26 | 0.0501 | –
COc1ccc(N2CCN(c3ccc(-n4cnn(Cc5ccc(CN)cc5)c4=O)cc3)CC2)cc1 [compound 11] | 7.94 | 0.794 | –

More lines, now with the values ahead:

IC50 [1] [µM] | IC50 [2] [µM] | IC50 [3] [µM] | Structure (SMILES)
0.501 | 0.02 | 0.251 | O=c1n(-c2ccc3c(c2)CCN(CC2CCCCC2)C3)cnn1CCNCCOc1ccccc1 [compound 98]
0.316 | 0.00501 | 0.0501 | C/C(=C\c1ccccc1)CN1CCC(n2cnn(CCCN3C(=O)c4ccccc4C3=O)c2=O)CC1 [compound 83]
0.0631 | 0.00158 | – | N#Cc1cccc(NCCCN2CCN(CCn3ncn(CC4CCN(CCOc5ccccc5)CC4)c3=O)CC2)c1 [compound 124]
0.0251 | 0.000631 | 0.02 | O=C1c2ccccc2C(=O)N1CCCn1cnn(CC2CCN(CCOc3ccccc3)CC2)c1=O [compound 84]
0.0501 | 0.002 | – | O=c1n(CC2CCN(CCOc3ccccc3)CC2)cnn1CCN1CCN(Cc2c[nH]c3ccc(F)cc23)CC1 [compound 129]
0.0501 | 0.00251 | – | O=c1n(CC2CCN(CCOc3ccccc3)CC2)cnn1CCN1CCN(Cc2cc3ccccc3s2)CC1 [compound 130]
0.398 | 0.0398 | – | O=c1n(CCNCCOc2ccccc2)nnn1-c1ccc(CN2CCOCC2)cc1 [compound 106]
0.0631 | 0.0398 | – | C/C(=C\c1ccccc1)CN1CCC(n2cnn(-c3ccc(CN4CCOCC4)cc3)c2=O)CC1 [compound 80]
0.126 | 0.00794 | – | O=c1n(CC2CCN(CCOc3ccccc3)CC2)cnn1CCN1CC2CC=CCC1CN2c1ccc2ccccc2c1 (stereo not drawn) [compound 131]
> 10 | 0.794 | – | Cc1cc(CN2CCC(Cn3ncn(-c4ccc(CN5CCOCC5)cc4)c3=O)CC2)oc1C [compound 76]
3.16 | 0.251 | – | O=c1n(-c2ccc(CN3CCOCC3)cc2)cnn1CC1CCN(Cc2cc3ccccc3o2)CC1 [compound 77]
0.2 | 0.0126 | – | O=c1n(CC2CCN(CCOc3ccccc3)CC2)cnn1CCN1CCN(Cc2ccc3ncccc3c2)CC1 [compound 126]
0.0631 | 0.00501 | – | CC(C)(C)C(=O)Cn1cnn(CC2CCN(CCOc3ccccc3)CC2)c1=O [compound 132]
0.794 | 0.158 | – | O=c1n(-c2ccc(CN3CCOCC3)cc2)cnn1CC1CCN(Cc2ccc3ccccc3c2)CC1 [compound 74]
0.631 | 0.0794 | – | C/C(=C\c1ccccc1)CN1CCC(n2cnn(Cc3ccc(CN4CCOCC4)cc3)c2=O)CC1 [compound 81]
0.0794 | 0.0126 | – | O=c1n(CC2CCN(CCOc3ccccc3)CC2)cnn1CCN1CCN(Cc2cc3ccccc3[nH]2)CC1 [compound 128]
0.0631 | 0.00398 | – | O=c1n(CC2CCN(CCOc3ccccc3)CC2)cnn1CCN1CCN(c2cccc3c2OCCO3)CC1 [compound 127]
